Data: patent US11535633B2, “Fused tricyclic heterocycle compounds and therapeutic uses thereof” (Jiangsu Hengrui Medicine Co., Ltd., priority 2018, dated 2022)
pEC50: −log10 of the molar value.

Legend:
[1] = biological target: T1, hSTING c-terminal domain (purified hSTING aa154-342) (Homo sapiens, UniProt Q86WV6); test: Thermal shift assay for measuring the relative binding affinity to hSTING c-terminal domain; conditions: Tm of sample minus mean Tm of negative control (buffer, 2% DMSO), SYPRO Orange
T1 construct: Purified hSTING (aa154-342)
Procedure: Test Example 1. Thermal Shift Assay for Measuring the Relative Binding Affinity to hSTING c-Terminal Domain
From each of the 10 mM stock solutions of compounds in DMSO, dilutions are made to create samples with three concentrations 10 mM, 5 mM and 2.5 mM. From these dilutions a final 50 fold dilution is made into assay buffer, giving concentrations of 200 μM, 100 μM, and 50 μM. From each of the buffer dilutions, 5 μL is added to the 384 well assay plate. A positive control is setup with cGAMP using the same dilution scheme as the ligands. A baseline thermal shift for the negative control is determined using buffer and 2% DMSO.
An aliquot of protein is thawed on ice and SYPRO orange reagent is brought to room temperature. The 5000× SYPRO orange stock is diluted in assay buffer to a concentration of 10×. Protein is diluted to a concentration of 10 μM in the prepared buffer/dye solution. Five micro-liters of protein/buffer/dye solution is added to each of the sample and control wells, and the plate is sealed with the provided films. The plate is centrifuged for 5 min at 20° C. at 1000 rpm.
On the Light Cycler instrument, measurements are made over a temperature gradient from 20° C. to 99° C. at 0.07° C./s and data acquisitions collected at a rate of 8/° C. is used to measure the change in fluorescence as a function of temperature. Data analysis is performed using the Roche Light Cycler Software to determine the melting temperature (Tm ° C.) of each sample. A mean Tm ° C. for the negative control is calculated and subtracted from each of the samples to generate the ΔTm ° C. values for each of the ligands.
The relative binding affinity to hSTING c-terminal domain of the compounds of the present invention was determined by the above assay, and ΔTm ° C. values are shown in the following table 1.

Human PBMC cells = test: IFNβ secretion in human PBMC; format: cell-based; conditions: IFNβ in supernatant by ELISA, 5 hours incubation
Procedure: Test Example 3. IFNβ Secretion in Human PBMC
• 1. Human PBMC cells (STEMCELL Technologies) • 2. Lymphocyte Medium (Zenbio) • 3. Culture and compound dilution media: RPMI with high glucose and glutamine (Genesee, Cat. #25-506), 10% fetal bovine serum (Life Technologies, Cat. #10082147), 100 μg/ml Normocin (InvivoGen, Cat. #ant-nr-2) and Penicillin-Streptomycin (100×) (Life Technologies, Cat. #15140122) • 4. Human IFNβ Quantikine ELISA kit (R&D systems) • 5. Infinite M1000 plate reader (TECAN) Experimental Procedure
Cryopreserved peripheral blood human mononuclear cells (PBMCs) were rapidly thawed and resuspended in Lymphocyte Media and centrifuged at 500×g for 5 minutes. The supernatant was removed and the cell pellets were gently resuspended in cell culture and compound dilution media. Human PBMC cells were plated in a 96-well format at a concentration of 1.5×10^5 cells per well. The test compounds, at varying concentrations, or vehicle control (<0.3% DMSO) were mixed with the cells giving a final volume of 150 μl per well. The plates were incubated for 5 hours in a humidified, 5% CO2 incubator at 37° C. After incubation, the human IFNβ in the supernatant and the IFNβ standard controls were measured using human IFNβ Quantikine ELISA kit according to the manufacturer's protocol. The absorbance at 450 nm was measured with Infinite M1000 plate reader and corrected by background reading at 540 nm of each well. The amount of […] based on the standard curves. The plot of IFNβ concentration versus the log of compound concentration was fit in GraphPad Prism with a 4-parameter concentration response equation to calculate EC50 and Emax.

[2] = biological target: T2, STING in THP1-Dual KI-hSTING-R232 cells (Homo sapiens, UniProt Q86WV6, H232R); test: Human THP1 reporter cell assay (IRF luciferase reporter); format: cell-based; conditions: 24 hours incubation
T2 construct: host or cells: THP1-Dual KI-hSTING-R232 cells (human monocytic THP-1 reporter line)
Procedure: Test Example 2. Human THP1 Reporter Cell Assay
• 1. Human THP1-Dual KI-hSTING-R232 Cells (InvivoGen, Cat. #thpd-r232) • 2. QUANTI-LUC (InvivoGen, Cat. #rep-qlc2) • 3. Media for cell culture and compound dilution: RPMI with high glucose and glutamine (Genesee, Cat. #25-506), 10% fetal bovine serum (Life Technologies, Cat. #10082147), 25 mM HEPES (Genesee, Cat. #25-534), 100 μg/ml Normocin (InvivoGen, Cat. #ant-nr-2), 10 μg/ml blasticidin (InvivoGen, Cat. #ant-bl-05), 100 μg/ml Zeocin (InvivoGen, Cat. #ant-zn-5p) and Penicillin-Streptomycin (100×) (Life Technologies, Cat. #15140122) • 4. Infinite M1000 plate reader (TECAN) Experimental Procedure
Activation of STING in THP1-Dual KI-hSTING-R232 cells was determined by measuring the luminescence signal resulting from the expression of the IRF luciferase reporter gene. All reagent preparation and assay procedures were conducted according to the protocols provided by InvivoGen. In brief, test compounds and cells (1×10^5 cells per well) were dispensed into 96-well plates with a final volume per well of 150 μl. Plates were incubated in a humidified, 5% CO2 incubator at 37° C. for 24 hours. The expression level of the reporter gene was measured by transferring 20 μl of the supernatant to a non-transparent 96-well plate to which 50 μl of QUANTI-LUC was dispensed into each well. The resulting luminescence signal was immediately read using a TECAN plate reader. The background luminescence signal from media was subtracted. The fold induction effect of the luminescence signal at each compound concentration was determined relative to controls that lack compound treatment. The plot of fold induction effect versus the log of compound concentration was fit in GraphPad Prism with a 4-parameter concentration response equation to calculate EC50 and Emax.
Activation of STING in THP1 of the compounds in the present invention was determined by the above assay, and EC50 values are shown in the following table 2.

T1 sequence (Q86WV6 154-342): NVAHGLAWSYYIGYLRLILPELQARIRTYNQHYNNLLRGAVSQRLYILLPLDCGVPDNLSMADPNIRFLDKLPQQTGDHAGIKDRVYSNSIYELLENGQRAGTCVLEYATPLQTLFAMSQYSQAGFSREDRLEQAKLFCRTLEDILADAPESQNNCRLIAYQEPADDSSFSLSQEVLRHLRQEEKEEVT
T2 sequence (Q86WV6 whole entry H232R): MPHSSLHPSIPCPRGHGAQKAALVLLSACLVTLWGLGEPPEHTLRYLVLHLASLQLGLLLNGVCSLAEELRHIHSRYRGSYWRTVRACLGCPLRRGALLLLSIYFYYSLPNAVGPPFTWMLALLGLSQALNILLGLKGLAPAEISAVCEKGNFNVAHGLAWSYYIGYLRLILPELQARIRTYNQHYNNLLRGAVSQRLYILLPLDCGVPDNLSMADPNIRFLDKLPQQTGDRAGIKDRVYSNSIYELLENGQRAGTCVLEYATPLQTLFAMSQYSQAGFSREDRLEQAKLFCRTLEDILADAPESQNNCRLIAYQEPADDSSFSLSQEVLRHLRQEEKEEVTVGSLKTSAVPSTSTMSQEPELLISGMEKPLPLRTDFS

ΔTm at 100 µM [1]: 10.7 °C
pEC50 [2]: 7.52
Structure (SMILES): CCn1nc(C)cc1C(=O)Nc1nc2cc(C(N)=O)cc(OC)c2n1CCC[C@H]1COc2cc(C(N)=O)cc3nc(NC(=O)c4cc(C)nn4CC)n1c23 [Example 13, (S)-3-(3-(5-carbamoyl-2-(1-ethyl-3-methyl-1H-pyrazole-5-carboxamido)-7-methoxy-1H-benzo[d]imidazol-1-yl)propyl)-2-(1-ethyl-3-methyl-1H-pyrazole-5-carboxamido)-3,4-dihydro-5-oxa-1,2a-diazaacenaphthylene-7-carboxamide]
pEC50 (Human PBMC cells): 7.00
